# Measured values taken from patent US12213975B2, “PDE9 inhibitors for treating sickle cell disease” (Cardurion Pharmaceuticals, Inc., priority 2018, dated 2025).
# Columns and labels:
# SCD models = experiment: Circulating levels of PMNs in SCD models; assay type: in vivo
# [1] = test system: SCD patient neutrophils adhering to activated endothelial cells HMEC-1; experiment: In vitro adhesion assay mimicking blood flow: SS patient neutrophils on activated HMEC-1 lined microchannels; assay type: cell-based, human
# Source text: This appears to be accompanied by a Compound 1-mediated reduction in disease specific cell activation including 67% lower levels of myeloid derived myeloperoxidase (MPO) and 26% lower levels of neutrophil derived arginase in the lung (FIG. 1). […] This was quantified by real time monitoring of the green florescent patches in the mircochannel, as neutrophils are labeled by a specific Alexa Fluor® 488-conjugated antibody before the perfusion step. […] Under these conditions, adhesion was reduced an average of 54% (p=0.03) (FIG. 2). Mechanistically, not willing to be bound by any theory, Compound 1 may target the stationary adhesion step of neutrophils as it lowered expression levels of key neutrophil integrins including CD11a [reduced 23% (p=0.002)], CD11b [reduced 39% (ns)) and CD18 [reduced 47% (p=0.03)) (FIG. 3).
# patient = experiment: Adverse event profile when taken with food; assay type: in vivo; conditions: once a day with food
# Procedure: In some embodiments, Compound 1 or a pharmaceutically acceptable salt or polymorph thereof is administered to a patient, wherein Compound 1 or a pharmaceutically acceptable salt or polymorph thereof is administered once a day with food. […] The incidence and severity of the side effects, such as nausea, emesis and headache, can be reduced when Compound 1 or a pharmaceutically acceptable salt or polymorph thereof, is taken with food.
# Townes mouse model = experiment: Plasma sE-Selectin in Townes mouse model of SCD; assay type: in vivo; conditions: Townes mice treated with Compound 1
# Source text: Recently several drugs targeting white cell binding to endothelial cells, have been advancing in clinical studies in patients. Compound 1 is able to increase expression of fetal hemoglobin in patient derived cells and murine models of SCD and reduce vessel occlusion in SCD murine models. In this Example, the ability of Compound 1 to reduce the adhesive properties of neutrophils from SCD patients and reduce sE-Selectin (sE-Sel) and markers of PMN activation in murine SCD models was studied.
# Endothelial E-selectin (E-Sel) slows leukocyte rolling, which is followed by stationary adhesion and transmigration of activated leukocytes. Plasma levels of sE-Sel, produced by the enzymatic cleavage of the extracellular domains of E-Sel, are increased in SCD patients and this may be mediated by its interaction with leukocytes. In the Townes mouse model, plasma sE-Sel is increased 144% ([…]) over levels seen in control mice ([…]).
smiles,measurement,setting,value
"C[C@@H]1CN(Cc2ncccn2)C[C@H]1c1cn2c(C3CCOCC3)ncc2c(=O)[nH]1 [Compound 1, 6-[(3S,4S)-4-methyl-1-(pyrimidin-2-ylmethyl)pyrrolidin-3-yl]-3-tetrahydropyran-4-yl-7H-imidazo[1,5-a]pyrazin-8-one]",circulating levels of PMNs,SCD models,reduced circulating levels of PMNs
same,incubation time at which inhibitory effect was initiated,[1],15 min
same,reduction of neutrophil adhesion (average),"[1]; 30 min incubation with 30 μM, p=0.03, FIG. 2",54%
same,effect on neutrophil adhesion to activated HMEC-1,[1]; added to blood samples prior to the perfusion step,reduced adhesions significantly and in a dose dependent manner
same,"effect of food on adverse event profile (nausea, emesis, headache)",patient,food can dramatically reduce the adverse event profile
same,plasma sE-Sel,"Townes mouse model; untreated Townes 139, control mice 57",92 ng/mL
same,plasma sE-Sel levels elevated over control mice,Townes mouse model; untreated Townes increased 144%,61%
